According to ChEMBL document CHEMBL3507680, “University of Dundee, Gates Library screen for HepG2 cell viability”:

Assay: Human HepG2 cell viability assay in 384 well format
Assay type: toxicity, cell-based
Design: dose 125 nL, time 70.5 hour; cytotoxicity at 70.5 h: concentration not given beside the values
Conditions: HepG2 cells, read-out: Inhibition

SMILES	cytotoxicity at 70.5 h
CC(=O)Nc1ccc(C(=O)Nc2cnc3n2CCCC3)c(C)c1	-1.77%
O=C(c1cccc(F)c1)N1C[C@@H](CN2CCCCC2)[C@@H](CO)C1	-7.48%
CC(C)[C@@H]1CN(Cc2cnc3c(S(C)(=O)=O)cnn3c2)C[C@H]1N(C)C	-7.81%
CN(C)CCNc1cc(-c2ncccn2)c2cc[nH]c2n1	-6.11%
O=C(CNC(Cn1cccn1)c1ccccc1)Nc1cnccn1 (configuration not stated)	13%
CCC[C@@H]1CN(C(=O)c2conc2-c2ccccc2)C[C@H]1N(C)C	0.694%
O=C(NCCCNc1cccnc1)c1ccc2nccn2c1	-12.7%
Cc1cc(NCc2noc(C(C)C)n2)nc(-c2ccccc2)n1	12.1%
Cc1ncc(C)c(N2CCC(Cc3ccc(Cl)cc3)(C(=O)O)CC2)n1	-9.85%
Cc1nc(C)c(CC(=O)N2C[C@@H](C(=O)O)[C@H](c3ccccc3C)C2)s1	-17%
COCCN1CCC(CN(Cc2ccncc2)C2CCC2)CC1	-6.79%
CCC[C@@H]1CN(C(=O)Cc2sc(C)nc2C)C[C@H]1C(=O)O	-5.07%
COCC1CCN(S(=O)(=O)N2C[C@@H](C)[C@](O)(C3CC3)C2)CC1	-1.25%
CCOCc1nc2c(c(N(C)Cc3ccsc3)n1)CCNCC2	-3.56%
COc1cccc2c(=O)n(Cc3cc(C4CC4)[nH]n3)cnc12	0.602%
COCCN(Cc1sccc1C)Cc1nccn1CCOC	-4.3%
COC[C@]1(O)CCN(Cc2c[nH]c(CC3CCCC3)n2)CC1(C)C	30.4%
CC(O)CN1CCc2[nH]nc(C(c3ccccc3)c3ccccc3)c2C1 (configuration not stated)	-5.7%
O=C1C[C@H]2CC[C@@H](CN1)N2c1cc(-c2ccccc2F)nc2ccnn12	-4%
CCc1nc(C)c(-c2nccn2CC2CC(=O)N(CC)C2)[nH]1 (configuration not stated)	1.63%
Cc1ccc([C@H]2CN(CCO)C[C@@H]2NC(=O)CN2CCCCC2=O)o1	-11%
Cc1n[nH]c(C)c1CCN(C)C(=O)c1ccc(CCC(C)(C)O)cc1	-3.14%
Cc1ncsc1CN1CCn2nc(CCC(=O)N3CCCC3)cc2C1	-6.96%

SMILES	cytotoxicity at 70.5 h
CCc1cc(NCc2cc(CC(C)C)on2)n2nccc2n1	-2.02%
Cc1ncsc1CCN(C)C(=O)CN1CC2(CCCC2)CC1=O	-15%
Cc1csc(CCNC(=O)C2CCCN(C3CCOCC3)C2)n1 (configuration not stated)	-11.1%
Cc1nc2c(c(NCC(c3ccccc3C)N(C)C)n1)CCNC2 (configuration not stated)	25.9%
COc1cc(-c2nccn2CCn2cccn2)cc2c1OCO2	-1.97%
Cc1ccc(C(C(=O)NCc2n[nH]c(N)n2)N(C)C)cc1 (configuration not stated)	-5.83%
Cc1cc(C)n2nc(CC(=O)N3CC[C@H]4NCCC[C@]4(CO)C3)nc2n1	-3.3%
CCn1c(-c2ccccc2)nn(CC(=O)NCCc2ccc(C)o2)c1=O	-0.836%
CC(O)c1cccc(N2CCC3(CCC(=O)N(C4CCCC4)C3)CC2)n1 (configuration not stated)	-2.86%
CCOC(=O)CNc1nc(C(C)(C)C)nc2c1cnn2C	1.33%
CCC(CC)N(Cc1ccc2c(c1)OCO2)C(=O)c1ccc(=O)n(C)c1	-1.82%
O=C1NC2(CCN(C(=O)c3ccc(Cl)cc3)CC2)CC1c1ccccc1 (configuration not stated)	20.8%
Cc1cc(F)ccc1-c1cc(NCCO)nc2[nH]ccc12	0.963%
CCCN1CCCC2(CCN(c3nc(C)nc4ccsc34)C2)C1=O (configuration not stated)	-3.49%
CCc1ccc(OCCN(C)C(=O)c2ccncc2Cl)cc1	-5.33%
Cc1nnc(CCNC(=O)C(c2ccc(F)cc2)N(C)C)[nH]1 (configuration not stated)	25%
Cn1ncc2c(N3CCCC(C)(O)C3)nc(-c3cccnc3)nc21 (configuration not stated)	9.87%
CCc1nc(N2CCC3(CC2)[C@H](O)C[C@@H]3O)ncc1C	-5.93%
CN(Cc1nncn1C)c1nccc(C2CCCC2)n1	6.4%
CCOc1ccc(CN2CCC3(CC2)CNC(=O)C3)cn1	-1.37%
COCC(NC1CCSCC1)c1ccnn1C (configuration not stated)	21.8%
C[C@@H]1CN(C(=O)C2(Cn3cccn3)CC2)C[C@@]1(O)C1CCC1	-0.77%
CSCc1ccc(N2CCC(C(O)CC(C)C)CC2)nc1 (configuration not stated)	6.44%

SMILES	cytotoxicity at 70.5 h
COc1cccc(-c2n[nH]c3c2CN(C(=O)c2cc(C)n(C)n2)CC3)c1	-7.15%
Cc1cn(CCn2ccnc2-c2sccc2C)nn1	-2.5%
Cc1cc(C(=O)N2CC[C@](C)(O)[C@H](C)C2)c(C)n1C	18.2%
CCN(Cc1cc(Cl)ccc1OC)Cc1nccn1C	12.7%
CCc1nnc(CNC(=O)c2cc3c(nc2OC)CCC3)s1	2.77%
Cc1ccc(CN2CCN(c3cc(NCCO)ncn3)CC2CCO)o1 (configuration not stated)	-5.58%
COc1nc2ccn(CCc3cnccn3)c(=O)c2cc1C#N	40.2%
Clc1cc(NCc2ncc[nH]2)nc2[nH]ccc12	-6.45%
COCCN1CC2(CCC1=O)CCN(Cc1cc(F)ccc1Cl)CC2	6.46%
Cc1cc2nc(-c3cn(C4CCNCC4)nn3)[nH]c2cc1C	-2.26%
Cc1cccc(Cn2nc(C3CCNCC3)n(-c3ccccc3)c2=O)c1	-5.91%
COc1ccc2c(c1)OCC(CNC(=O)c1cnc(NC(C)C)nc1)C2 (configuration not stated)	12.5%
CCc1cnc(N2CCOC(CCOC)C2)nc1 (configuration not stated)	-13.5%
O=S(=O)(N1CCOCC1)N1CCOC(CCc2ccccc2)C1 (configuration not stated)	-4.48%
COc1ccccc1CCN1CCCC(CN(C)Cc2ccc(C)o2)C1 (configuration not stated)	-8.57%
NCC1CN(Cc2cn(CCC(N)=O)c3ccccc23)CCO1 (configuration not stated)	2.17%
COCc1ncc(-c2nccn2CCn2cnnc2)cn1	-2.42%
Cc1nc(N)nc(N2CCOc3ccc(CO)cc3C2)c1C	25.5%
Cc1cnn(CC(=O)N2CCC3(CCC(=O)N(C4CCCC4)C3)CC2)c1	-2.24%
CCn1ccnc1CNc1nccc(-c2c(C)nn(C)c2C)n1	-15.1%
CCN(Cc1cc(F)c(OC)c(Cl)c1)Cc1noc(CC(C)C)n1	-10.5%
c1[nH]c(CC2CCCC2)nc1CN1CCCC2(CCOC2)C1 (configuration not stated)	-8.93%
CC(C)Cc1noc(-c2ccc(NCc3noc(C(C)C)n3)nc2)n1	-5.16%

SMILES	cytotoxicity at 70.5 h
CO[C@H]1C[C@@H](O)C12CCN(C(=O)c1cccc(CCC(C)(C)O)c1)CC2	-0.132%
O=C(CCO)N[C@H]1CN(CC2CCC2)C[C@@H]1c1ccccc1	-3.06%
Cc1ccsc1CN(c1nc(CCN)nc2ccccc12)C1CC1	10.4%
CN(CC1CCOC1)S(=O)(=O)c1cccc(C(=O)N2CCOCC2)c1 (configuration not stated)	-4.27%
Cc1cc(C)c2nc(CNC3CCNC3=O)cc(O)c2c1 (configuration not stated)	-3.2%
Cc1cc(O)ccc1-c1cc(-c2cnn(C)c2C2CC2)c(C#N)c(N)n1	19.9%
CSc1cccc(CNC(=O)C2CC(=O)N(C3CC3)C2)c1 (configuration not stated)	-1.83%
COc1ncc(-c2ccc(NC(C)=O)cc2)c(OC)n1	-11%
CN(Cc1cnc(N)nc1)C(=O)C1CCN(C(=O)C2CCCC2)CC1	-4.62%
N#Cc1ccc(NCc2cc3n(n2)CCCN(C(=O)C2CCC2)C3)nc1	-8.13%
CCc1ccccc1OCCN1CC[C@@]2(O)CCNC[C@H]2C1	-3.34%
CCC1(O)CCCN(c2ncnc3c2c(C)nn3C)C1 (configuration not stated)	-4.68%
COc1ccc(NC(=O)CCC2CCCN(S(=O)(=O)C3CC3)C2)cc1Cl (configuration not stated)	5.12%
Cc1nccc(N2CCC(Cc3cccc(C(=O)O)c3)CC2)n1	-6.88%
CCCc1nnc(NCCc2noc(C3CCC3)n2)o1	-10.7%
NC(=O)c1cc2c(nc1CCOc1ccc(F)cc1)CCC2	-2.31%
Cc1nn(C)c(C)c1CN(C)C1CCN(c2ncnc3[nH]cnc23)CC1	23.7%
COc1ccccc1[C@@H]1CN(Cc2nccn2C)C[C@H]1C(=O)O	-3.84%
Cc1ccc2nc(C3CCCN3Cc3scnc3C)[nH]c2c1 (configuration not stated)	-6.86%
Fc1ccccc1OC1CCN(CCn2cc3ccccc3n2)CC1	-22%
Cc1cc(C)n(CC(=O)N2CCCCC2CCc2cccs2)c(=O)n1 (configuration not stated)	-13.4%
CSCC(=O)N1C[C@@H](C)[C@](O)(C(C)C)C1	-7.39%
O=C(c1cnc(Nc2ccccc2)nc1)N1CCCC2(CCNC2)C1 (configuration not stated)	-8.38%

SMILES	cytotoxicity at 70.5 h
COc1ccc2[nH]c(=O)c(CN(C)CCN3CCCC3)cc2c1	57.1%
Cn1ncc2c(N[C@H]3CCCC[C@@H]3O)nc(C(C)(C)C)nc21	-2.77%
COc1cnc(CN2CC(=O)N(c3ccc(C)cc3)CC2C)cc1O (configuration not stated)	-5.7%
c1ccc(OCCN2CCN(c3ncnc4[nH]ccc34)CC2)cc1	24.7%
CC(C)n1cnnc1CN(C)C(=O)C1CCCN(C2CCN(C)CC2)C1 (configuration not stated)	-3.47%
NC(=O)NCC(=O)N1CCCC(c2nccn2Cc2ccncc2)C1 (configuration not stated)	-1.01%
O=C(CC1CCc2ccccc21)NCCSc1cnn[nH]1 (configuration not stated)	-9.43%
CC1(C)CN(C(=O)CC2CCS(=O)(=O)CC2)C[C@]1(C)O	-4.68%
O=C(c1cc(-c2cn[nH]c2)nc2ccc(F)cc12)N1CCSCC1	-5.34%
COCC(=O)N1C[C@@H](C)[C@](O)(C(C)C)C1	-3.63%
Cc1cccc(N2CCN(CC(=O)N3CCCC(N(C)C)CC3)CC2)c1 (configuration not stated)	-4.61%
FC(F)(F)COc1cccc(-c2nc3c([nH]2)CCNC3)c1	-4.72%
COCC(NC(=O)c1cc(NC(C)=O)ccc1Cl)c1ccccn1 (configuration not stated)	-5.35%
CN1CCC(Oc2ccc(-n3ccnc3-c3nccn3C)cc2)CC1	-8.7%
O=C(NCC(O)c1cccc(F)c1)C1CCN(C(=O)C2CCC2)CC1 (configuration not stated)	-1.02%
CNc1cc(C)nc(-c2cc(NCCO)nc3[nH]ccc23)n1	11.9%
CCc1cc(N[C@@H](CO)C(N)=O)n2nc(C)c(C)c2n1	-2.72%
CCS(=O)(=O)N[C@H]1CN(Cc2noc(COC)n2)C[C@@H]1C1CC1	-8.57%
CCN(Cc1nc(COC)no1)Cc1cccnc1NC(=O)C(C)(C)C	-9.55%
COCc1ncc(CN2CCC3(CCC(=O)N(CC(C)O)C3)CC2)cn1 (configuration not stated)	-9.93%
